Measured values taken from PMC11064505, “A nanochitosan-D-galactose formulation increases the accumulation of primaquine in the liver” (Antimicrobial Agents and Chemotherapy, 2024).

Experiments:
[1] = parameters: method as in PMID 16968913, PMID 30379233, PMID 35709685; details: human treatment, clinical dose; cited from earlier work
[2] = in vivo; details: mouse
Protocol: All formulations were given by gavage with a final volume of 200 µL. At different intervals (0.5, 1, 2, 4, 8, and 24 hours), animals were subjected to anesthesia with a mixture of xylazine (10 mg/kg) and ketamine (100 mg/kg). Blood was collected by cardiac puncture, plasma was separated by centrifugation, RBCs were washed three times in saline, and plasma and RBC were stored at −20°C. After the animal was exsanguinated, the liver, lungs, and spleen were collected and frozen in liquid nitrogen until processed for primaquine quantification.
The extraction procedure was based on Carmo et al. ([22]) and Joshi and Devarajan ([23]). Briefly, 100 µL or 100 mg of the sample was transferred to a 1.5 mL microtube. Then, 100 µL of 2% acetic acid-acidified acetonitrile and 100 µL of ultrapure water were added. Next, the samples were homogenized for 1 minute using a vortex, and 50 µL of 12.5% zinc sulfate solution was added. The samples were homogenized again for 1 minute and left to stand for 20 minutes to ensure complete protein precipitation. After this period, the samples were centrifuged at 7,500 rpm for 15 minutes at room temperature. Finally, the supernatant was collected, and 20 µL was injected into the liquid chromatograph. This process was repeated to construct the eight-point calibration curves (0.39–50 µg/mL).
The primaquine concentrations in plasma, liver, lung, and spleen samples from mice treated with free primaquine were determined using high-performance liquid chromatography with a UV detector (HPLC-UV). Method validation followed orientations of the Guidance for Bioanalytical Method Validation from the Food and Drug Administration. The method was developed using a Waters liquid chromatography system with an Alliance e2695 Separation Module, quaternary pump, autosampler, degasser, column heater, and a dual channel UV–Vis detector (Milford, USA). The Empower 3 software was used for system control, peak integration, and data analysis. The separation was performed using an XBridge C18 reverse-phase column (150 × 4.6 mm, 5 µm) and an XBridge C18 reverse-phase pre-column (20 × 4.6 mm, 5 µm). For elution and identification of the primaquine, the mobile phase (MP) consisted of (A) potassium phosphate buffer (0.02 mol/L, pH = 3) and (Bi) acetonitrile. […] The flow rate of the MP was set at 1.0 mL/min, the column oven temperature was maintained at 35°C, and the UV detector was set at 266 nm. An injection volume of 20 µL was used, and the total run time was 13 minutes.
The physicochemical analyses of the nanoparticles were performed in triplicate and are expressed as the mean value ± SD. Statistical significance tests were applied through mixed-model analysis of variance, using Prism GraphPad Software. […] Non-compartmental pharmacokinetic analysis was conducted using PK Solutions 2.0 (Summit Research Services, Ashland, USA). The area under the concentration-time curve was calculated using the trapezoidal method (AUC0-t) from time zero to the last data point and extrapolated to infinity (AUC0-∞). The maximum plasma concentration (Cmax) and the time taken to reach Cmax (Tmax) were obtained from the experimental data. The elimination rate constant (K) was determined from the slope of the regression line, allowing the calculation of the elimination half-life (t1/2β) using the formula 0.693 /K ([24]). All data were presented as mean ± SD.

[3] = parameters: method as in PMID 16140485; details: 1 hour after intravenous administration in mice; cited from earlier work

## COc1cc(NC(C)CCCN)c2ncccc2c1 (stereo not shown) [Pq, primaquine diphosphate]
[1]
  Cmax in plasma: around 0.1 µg/mL
[2]; Swiss Webster, po, 10 mg/kg
  Tmax: 30 min
  liver/plasma ratio for the volume of distribution: 0.1
[2]; Swiss Webster, po, 10 mg/kg, 30 minutes
  primaquine concentrations in the liver, variation among animals: 3.5-110 µg of drug per 100 mg of tissue
[2]; Swiss Webster, po, 10 mg/kg, primaquine concentrations in plasma (Cmax), variation among animals
  Cmax: 400 to 2000 ng/mL
[2]
  Cmax of primaquine in the liver relative to the galactose-based nanoformulations: about twice as much
[3]
  uptake of the drug (recovery) in the liver: 20%
